Measured values from PubChem BioAssay AID1259411 (Chemical Carcinogenesis Research Information System (CCRIS), 2018).
Activity calls are given as the source filed them. No rule for the calls is given here.

Tested on: rodent carcinogenicity bioassays, tumor incidence
Experiment: CCRIS carcinogenicity studies
Outline: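 NCI-built, expert-reviewed records of carcinogenicity and related test outcomes (mutagenicity, tumor promotion/inhibition) compiled from published and report sources, historical span 1985-2011, not updated.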

Question: How did the carcinogen call (Species: MOUSE, Strain/Sex: B6C3F1/MALE, Route: ORAL, Dose: 0, 666, 2000, 6000 PPM IN DIET FOR 103 WK (STUDY DURATION: 103 WK), Dose: 0, 666, 2000, 6000 PPM IN DIET FOR 103 WK (STUDY DURATION: 103 WK), Tumor Site: Type of Lesion: LIVER: HEPATOBLASTOMA, HEPATOCELLULAR ADENOMA) turn out when `COc1ccccc1[N+](=O)[O-]` was run?
Answer: active; positive

Question: What about the carcinogen call (Species: RAT, Strain/Sex: F344/N/FEMALE, Route: ORAL, Dose: 0, 222, 666, 2000 PPM IN DIET FOR 103 WK (STUDY DURATION: 103 WK), Dose: 0, 222, 666, 2000 PPM IN DIET FOR 103 WK (STUDY DURATION: 103 WK)) of the same compound?
Answer: inactive; negative

Question: What about the carcinogen call (Species: RAT, Strain/Sex: F344/N/FEMALE, Route: ORAL, Dose: 0, 6000, 18,000 PPM IN DIET FOR 27 WK (STUDY DURATION: 104 WK), Dose: 0, 6000, 18,000 PPM IN DIET FOR 27 WK (STUDY DURATION: 104 WK), Tumor Site: Type of Lesion: COLON: ADENOMATOUS POLYP, URINARY BLADDER: CARCINOMA, SARCOMA) of the same compound?
Answer: active; positive

Question: And the carcinogen call (Species: RAT, Strain/Sex: F344/N/MALE, Route: ORAL, Dose: 0, 222, 666, 2000 PPM IN DIET FOR 103 WK (STUDY DURATION: 103 WK), Dose: 0, 222, 666, 2000 PPM IN DIET FOR 103 WK (STUDY DURATION: 103 WK))?
Answer: inactive; negative

Question: What about the carcinogen call (Species: RAT, Strain/Sex: F344/N/MALE, Route: ORAL, Dose: 0, 6000, 18,000 PPM IN DIET FOR 27 WK (STUDY DURATION: 104 WK), Dose: 0, 6000, 18,000 PPM IN DIET FOR 27 WK (STUDY DURATION: 104 WK), Tumor Site: Type of Lesion: COLON: ADENOMATOUS POLYP, KIDNEY: CARCINOMA, URINARY BLADDER: CARCINOMA, SARCOMA, Tumor Site: Type of Lesion: COLON: ADENOMATOUS POLYP, KIDNEY: CARCINOMA, URINARY BLADDER: CARCINOMA, SARCOMA) of the same compound?
Answer: active; positive

Question: How did the carcinogen call (Species: MOUSE, Strain/Sex: DDNI/MALE, Route: ORAL, Dose: 0, 40, 60 UG IN DIET, 1/D FOR LIFE, Dose: 0, 40, 60 UG IN DIET, 1/D FOR LIFE, Tumor Site: Type of Lesion: HEMATOPOIETIC SYSTEM: RETICULOENDOTHELIOMA, LIVER: CARCINOMA, HEPATOCELLULAR ADENOMA) turn out when `CC[C@H]1NC(=O)[C@@H]2[C@H](Cl)[C@H](Cl)CN2C(=O)[C@@H](CO)NC(=O)C[C@H](c2ccccc2)NC(=O)[C@H](CO)NC1=O` was run?
Answer: active; positive

Question: For `Clc1ccc2c(c1)C(c1ccccc1)=NCc1nncn1-2`, which carcinogen call (Species: MOUSE, Strain/Sex: B6C3F1/FEMALE, Route: ORAL, Dose: 0, 0.8, 3, 10 MG/KG IN DIET FOR 2 YR (STUDY DURATION: 2 YR), Dose: 0, 0.8, 3, 10 MG/KG IN DIET FOR 2 YR (STUDY DURATION: 2 YR)) is on record?
Answer: inactive; negative

Question: And the carcinogen call (Species: MOUSE, Strain/Sex: B6C3F1/FEMALE, Route: ORAL, Dose: 0, 0.8, 3, 10 MG/KG/D IN DIET FOR 2 YR (STUDY DURATION: 2 YR), Dose: 0, 0.8, 3, 10 MG/KG/D IN DIET FOR 2 YR (STUDY DURATION: 2 YR))?
Answer: inactive; negative

Question: And the carcinogen call (Species: MOUSE, Strain/Sex: B6C3F1/MALE, Route: ORAL, Dose: 0, 0.8, 3, 10 MG/KG IN DIET FOR 2 YR (STUDY DURATION: 2 YR), Dose: 0, 0.8, 3, 10 MG/KG IN DIET FOR 2 YR (STUDY DURATION: 2 YR))?
Answer: inactive; negative

Question: And the carcinogen call (Species: MOUSE, Strain/Sex: B6C3F1/MALE, Route: ORAL, Dose: 0, 0.8, 3, 10 MG/KG/D IN DIET FOR 2 YR (STUDY DURATION: 2 YR), Dose: 0, 0.8, 3, 10 MG/KG/D IN DIET FOR 2 YR (STUDY DURATION: 2 YR))?
Answer: inactive; negative

Question: What about the carcinogen call (Species: RAT, Strain/Sex: SPRAGUE-DAWLEY/FEMALE, Route: ORAL, Dose: 0, 0.5, 2, 10 MG/KG IN DIET FOR 2 YR (STUDY DURATION: 2 YR), Dose: 0, 0.5, 2, 10 MG/KG IN DIET FOR 2 YR (STUDY DURATION: 2 YR)) of the same compound?
Answer: inactive; negative

Question: What about the carcinogen call (Species: RAT, Strain/Sex: SPRAGUE-DAWLEY/MALE, Route: ORAL, Dose: 0, 0.5, 2, 10 MG/KG IN DIET FOR 2 YR (STUDY DURATION: 2 YR), Dose: 0, 0.5, 2, 10 MG/KG IN DIET FOR 2 YR (STUDY DURATION: 2 YR)) of the same compound?
Answer: inactive; negative

Question: What about the carcinogen call (Species: RAT, Strain/Sex: STRAIN-CD/FEMALE, Route: ORAL, Dose: 0, 0.5, 2, 10 MG/KG/D IN DIET FOR 2 YR (STUDY DURATION: 2 YR), Dose: 0, 0.5, 2, 10 MG/KG/D IN DIET FOR 2 YR (STUDY DURATION: 2 YR)) of the same compound?
Answer: inactive; negative

Question: And the carcinogen call (Species: RAT, Strain/Sex: STRAIN-CD/MALE, Route: ORAL, Dose: 0, 0.5, 2, 10 MG/KG/D IN DIET FOR 2 YR (STUDY DURATION: 2 YR), Dose: 0, 0.5, 2, 10 MG/KG/D IN DIET FOR 2 YR (STUDY DURATION: 2 YR))?
Answer: inactive; negative

Question: With `CCC1C(c2ccc(O)cc2)=C(C)c2cc(O)ccc21` (configuration not stated) as the compound, how does the carcinogen call (Species: HAMSTER, Strain/Sex: SYRIAN/MALE, Route: SUBCUTANEOUS IMPLANT, Dose: 0, 20 MG IN PELLETS IMPLANTED EVERY 2.5 MO FOR 9 MO (STUDY DURATION: 9 MO), Tumor Site: Type of Lesion: KIDNEY: TUMOR) read?
Answer: active; positive

Question: With `COc1cccc2c1cc([N+](=O)[O-])c1c(C(=O)O)cc3c(c12)OCO3` (tested in a mixture with another compound) as the compound, how does the carcinogen call (Species: RAT, Strain/Sex: WISTAR/FEMALE, Route: GAVAGE, Dose: 0.1, 1.0, 10 MG/KG/D, 7 D/WK FOR 3 MO (LOW DOSE ALSO GIVEN FOR 6 OR 12 MO), Dose: 0.1, 1.0, 10 MG/KG/D, 7 D/WK FOR 3 MO (LOW DOSE ALSO GIVEN FOR 6 OR 12 MO), Tumor Site: Type of Lesion: FORESTOMACH: PAPILLOMA, CARCINOMA) read?
Answer: active; positive

Question: What about the carcinogen call (Species: RAT, Strain/Sex: WISTAR/MALE, Route: GAVAGE, Dose: 0.1, 1.0, 10 MG/KG/D, 7 D/WK FOR 3 MO (LOW DOSE ALSO GIVEN FOR 6 OR 12 MO), Dose: 0.1, 1.0, 10 MG/KG/D, 7 D/WK FOR 3 MO (LOW DOSE ALSO GIVEN FOR 6 OR 12 MO), Tumor Site: Type of Lesion: FORESTOMACH: PAPILLOMA, CARCINOMA, URINARY BLADDER: PAPILLOMA, CARCINOMA, KIDNEY: CARCINOMA, Tumor Site: Type of Lesion: FORESTOMACH: PAPILLOMA, CARCINOMA, URINARY BLADDER: PAPILLOMA, CARCINOMA, KIDNEY: CARCINOMA) of the same compound?
Answer: active; positive

Question: How did the carcinogen call (Species: MOUSE, Strain/Sex: B6C3F1/FEMALE, Route: INTRAPERITONEAL, Dose: 0, 10, 20 MG/KG IN BUFFERED SALINE 3/WK FOR 52 WK (STUDY DURATION: 79-80 WK), Dose: 0, 10, 20 MG/KG IN BUFFERED SALINE 3/WK FOR 52 WK (STUDY DURATION: 79-80 WK), Tumor Site: Type of Lesion: LYMPHATIC SYSTEM: MALIGNANT LYMPHOMA) turn out when `O=P1(NCCCl)OCCCN1CCCl` (configuration not stated) was run?
Answer: active; positive

Question: And the carcinogen call (Species: MOUSE, Strain/Sex: B6C3F1/MALE, Route: INTRAPERITONEAL, Dose: 0, 10, 20 MG/KG IN BUFFERED SALINE 3/WK FOR 52 WK (STUDY DURATION: 79-80 WK), Dose: 0, 10, 20 MG/KG IN BUFFERED SALINE 3/WK FOR 52 WK (STUDY DURATION: 79-80 WK))?
Answer: inactive; negative

Question: What about the carcinogen call (Species: MOUSE, Strain/Sex: STRAIN-A/MALE,FEMALE, Route: INTRAPERITONEAL, Dose: 0, 18.8, 47 MG/KG IN WATER 3/WK FOR 8 WK, Dose: 0, 18.8, 47 MG/KG IN WATER 3/WK FOR 8 WK, Tumor Site: Type of Lesion: LUNG) of the same compound?
Answer: active; positive

Question: What about the carcinogen call (Species: RAT, Strain/Sex: SPRAGUE-DAWLEY/FEMALE, Route: INTRAPERITONEAL, Dose: 0, 6, 12 MG/KG IN BUFFERED SALINE 3/WK FOR 52 WK (STUDY DURATION: 79-83 WK), Dose: 0, 6, 12 MG/KG IN BUFFERED SALINE 3/WK FOR 52 WK (STUDY DURATION: 79-83 WK), Tumor Site: Type of Lesion: MAMMARY GLAND: CYSTADENOMA OR CYSTADENOCARCINOMA, UTERUS: LEIOMYOSARCOMA;ADRENAL GLAND: CORTICAL ADENOMA, Tumor Site: Type of Lesion: MAMMARY GLAND: CYSTADENOMA OR CYSTADENOCARCINOMA, UTERUS: LEIOMYOSARCOMA;ADRENAL GLAND: CORTICAL ADENOMA) of the same compound?
Answer: active; positive

Question: And the carcinogen call (Species: RAT, Strain/Sex: SPRAGUE-DAWLEY/MALE, Route: INTRAPERITONEAL, Dose: 0, 6, 12 MG/KG IN BUFFERED SALINE 3/WK FOR 52 WK (STUDY DURATION: 79-83 WK), Dose: 0, 6, 12 MG/KG IN BUFFERED SALINE 3/WK FOR 52 WK (STUDY DURATION: 79-83 WK))?
Answer: inactive; negative
